Source: patent US5652222A, “Selective inhibition of leukemic cell proliferation by bcr-abl antisense oligonucleotides” (Temple University-of The Commonwealth System of Higher …, priority 1993, dated 1997)
Entries after “also recorded” stand apart in the source; their conditions may differ.

Key:
[1] = tested on: CML chronic phase; conditions: cited from earlier work; for control of the excessive granulopoiesis of CML: human, in vivo; for median survival: standard approach to treatment of CML chronic phase
[2] = tested on: nucleic acid synthesis in both normal and leukemic cells; conditions: cited from earlier work
[3] = tested on: chronic phase CML; conditions: cited from earlier work
[4] = tested on: cells of CML patients in blast crisis, K-28 (b3a2) type junction; assay: Colony formation of CML blast crisis patient cells expressing the b3a2 (K-28) junction; type: cell-based, human; conditions: for Number of Colonies, Antisense-treated: conditions of Example 1
From the text: To identify CML blast crisis patients carrying the second common type junction, in which bcr exon 3 is juxtaposed to c-abl exon 2, total RNA derived from cells of CML patients in blast crisis was reverse-transcribedwith synthetic primers. The 3' primer (SEQ ID NO:10) was complementary to 22 nucleotides of c-abl. exon 2. The 5' primer was the 22-mer GTCATCGTCCACTCAGCCACTG (SEQ ID NO:12) complementary to 22 nucleotides of bcr exon 3. The RNA was amplified by polymerase chain reaction according to Example 1. The amplification products were then hybridized with the synthetic 18-mer oligonucleotide GAAGGGCTTT TGAACTCT (SEQ ID NO:6), which is complementary to the b3a2 junction. After cloning of breakpoints in two patients, sequence analysis of several clones identified the b3a2 junction as precisely corresponding to the K-28 breakpoint shown in FIG. 3. (SEQ ID NO:4).
Utilizing the culture condition and oligomer treatment conditions of Example 1, cells were exposed to either no oligomer (FIG. 4A), the 18-nucleotide synthetic oligomer GAAGTGCTGT TGAACTCT (SEQ ID NO:5) partially complementary to the b3a2 junction, containing 9 nucleotides corresponding to bcr and 9 nucleotides corresponding to c-abl but with two mismatches (FIG. 4B); or the 18-nucleotide synthetic oligomer GAAGGGCTTT TGAACTCT (SEQ ID NO:6) completely complementary to the same bcr-abl junction (FIG. 4C).

[5] = tested on: BV173 cells (b2/a2); assay: Proliferation of BV173 cells expressing b2a2 junction; type: cell-based, human; conditions: in comparison to untreated control cells (FIG. 7)
Description: Amplification of the bcr-abl junction with a 5' primer corresponding to bcr exon 2, and a 3' primer corresponding to abl exon 2, followed by hybridization to an 18-mer specific for the b2/a2 or the b3/a2 junction identified the b2/a2 breakpoint in these cells (data not shown).
The sensitivity of the BV173 cells to b2/a2 antisense phosphorothioate oligodeoxynucleotides was assessed. Phosphorothioate oligodeoxynucleotides were prepared on either an Applied Biosystems Model 380B or 390Z Automated Synthesis instrument using conventional phosphoramidite monomers and manufacturer-recommended procedures, which included substitution of tetraethylthiuran (or an equivalent sulfur-donor reagent) for iodine-water-pyridine, […] reversed-phase preparative chromatography, detritylation, and obtaining the final product in the form of its sodium salt, all according to previously published methodology: Zon and Stec, in Oligonucleotides and Analogues A Practical Approach, F. Eckstein, Ed. (Oxford Univerisity Press, Oxford 1991), pp. 87-108; Zon and Geiser, Anti-Cancer Drug Design 6, 539 (1991); Vu and Hirschenbein, Tetrahedron Lett. 32, 3005-3008 (1991).
BV173 cells were cultured in the presence of phosphorothioate b2/a2 antisense 26-mer CGCTGAAGGG CTTCTTCCT ATTGAT (SEQ ID NO:29), the phosphorothioate sense sequence ATCAATAAGGAAGCCCTTCAGCG (SEQUENCE ID NO:34), or the b3/a2 (SEQ ID NO:31) or b1/a2 (SEQ ID N0:33) phosphorothioate antisense 26-mer. […] The sense oligomer SEQ ID NO:34 gave no inhibition (FIG. 7, -.largecircle.-) in comparison to untreated control cells (FIG. 7, -.quadrature.-).

[6] = alpha-interferon treated CML patients

Molecule	control of the excessive granulopoiesis of CML [1]	median survival [1]	inhibition of nucleic acid synthesis [2]	inhibition of proliferation of BV173 cells [5]	other results
CS(=O)(=O)OCCCCOS(C)(=O)=O [busulfan]	useful in the control of the excessive granulopoiesis of CML	about 47 months	inhibit nucleic acid synthesis in both normal and leukemic cells; also recorded: inhibit nucleic acid synthesis both in normal and leukemic cells	–	–
NC(=O)NO [hydroxyurea]	useful in the control of the excessive granulopoiesis of CML	about 47 months	inhibit nucleic acid synthesis in both normal and leukemic cells; also recorded: inhibit nucleic acid synthesis both in normal and leukemic cells	–	–
Alpha-interferon	–	–	–	–	patients with normalization of the blood count ([3]; 3-9 million units intramuscularly each day, chronic phase CML): about three quarters; side effects ([3]; CML patients): fever, anorexia, muscle and bone pain, depression, and often immune thrombocytopenia; patients with a decrease in Ph1-chromosome-containing metaphases [3, 6]: more than one third; treated patients having fewer than 5% Ph1-positive cells [3, 6]: about 15%; specificity of effect on leukemic clone ([3]; human, in vivo): non-specific, as indicated by the persistence of Ph^1 leukemic cells and the inhibition of normal hematopoietic cell growth
SEQ ID NO:6: 18-nucleotide synthetic oligomer GAAGGGCTTT TGAACTCT completely complementary to the b3a2 (K-28) junction (antisense GAAGGGCTTTTGAACTCT; further chemistry not given here)	–	–	–	–	Number of Colonies, Antisense-treated ([4]; Table 2, patient 1, untreated 278 ± 28): 102 ± 14 colonies; Number of Colonies, Antisense-treated ([4]; Table 2, patient 2, untreated 182 ± 18): 68 ± 12 colonies; % Inhibition ([4]; Table 2, patient 2, number of colonies vs untreated): 63%
SEQ ID NO:31: b3/a2 phosphorothioate antisense 26-mer CGCTGAAGGGCTT TTGAA&TCTGCTT (antisense CGCTGAAGGGCTTTTGAACTCTGCTT; all phosphorothioate, sugars by position and methylation of C not given here)	–	–	–	Only the b2/a2 antisense oligodeoxynucleotide inhibited the proliferation of BV173 cells	–
SEQ ID NO:33: b1/a2 phosphorothioate antisense 26-mer CGCTGAAGGGCTT CTGCGTCTCCATG (antisense CGCTGAAGGGCTTCTGCGTCTCCATG; all phosphorothioate, sugars by position and methylation of C not given here)	–	–	–	Only the b2/a2 antisense oligodeoxynucleotide inhibited the proliferation of BV173 cells	–
